Patent US20230131899A1, “INHIBITORS OF MICROBIALLY INDUCED AMYLOID” (Axial Therapeutics, Inc., priority 2020, published 2023)
Where two headings read alike, the source gives them in different places.

Assays:
[1] = biological target: T1, human α-synuclein (Homo sapiens, UniProt P37840); test: Cell-free Thioflavin T assay of α-synuclein aggregation (αSyn ThT Assay); assay type: biochemical; conditions: αSyn 50 μM
T1 construct: the full-length gene for untagged human α-synuclein was inserted; made in house; host or cells: E. coli BL21(DE3), plasmid derived from pT7 or pET11a
Description: To assess the effects of compounds on aggregation of α-synuclein, a cell-free assay was performed using purified α-synuclein and Thioflavin T. In the assay, human α-synuclein was expressed in E. coli BL21(DE3) from a plasmid derived from pT7 or pET11a into which the full-length gene for untagged human α-synuclein was inserted. Cells were induced at OD600 0.6 with 0.8 mM IPTG for 4 hours, harvested by centrifugation and suspended in a volume of lysis buffer (10 mM Tris, pH 8.0, 1 mM EDTA, and 1 mM PMSF) equivalent to one-tenth the volume of culture and lysed by boiling for 20 minutes. Cell debris was pelleted by centrifugation, clarified lysate was treated with 10% streptomycin sulfate at 136 μL/mL followed by glacial acetic acid at 228 μL/mL, lysate was centrifuged, supernatant was transferred to a fresh tube and protein was precipitated via addition of an equal volume of saturated (100%) ammonium sulfate and incubated at 4° C. on a rocking shaker for 1 hour. The protein was pelleted via centrifugation and washed with an equal volume of 100 mM ammonium acetate in chilled ethanol, pelleted via centrifugation, washed twice with chilled ethanol, dried overnight, resuspended in 50 mM potassium phosphate buffer pH 7.3 or 10 mM Tris pH 7.4, and passed through a 50 kDa cut-off column. Immediately prior to use, the purified α-synuclein was filtered with a 0.2 μm nylon filter. The assay was conducted in 96-well black microplates with a single 1-2 mm glass bead in each well, 20-40 μM ThioflavinT, 1% DMSO, α-synuclein at 50 μM and compounds at 20-100 μM. Plates were sealed with sealing tape (ThermoFisher 232701), incubated at 37° C. in a Tecan Nano F200 plate reader with excitation at 438 nm using a 439 nm filter with a bandwidth of 8 nm, and emission at 495 nm with a 490 nm filter with a bandwidth of 10 nm. During the assay, plates were shaken continuously or were shaken for 999 seconds every 18 minutes. Readings were performed hourly for up to 73 hours. The effect of compounds on α-synuclein aggregation in the assay was determined with data at 36, 47, 48 or 72 hours or from the final timepoint of the assay, prior to or roughly near the time when ThT fluorescence plateaued in the vehicle control wells. The vehicle controls contained all components of the assay except compounds and represented the level of α-synuclein aggregation in the absence of an inhibitor or accelerator. Fluorescence values for each compound with α-synuclein were first adjusted by subtracting the average fluorescence of the compound in the absence of α-synuclein. These adjusted values were normalized by dividing them by the average fluorescence at the same timepoint in the vehicle control wells, and the average normalized fluorescence with the compound was expressed as a percentage of the average fluorescence observed in untreated controls. Percent inhibition of α-synuclein aggregation by a compound was determined by subtracting the percent average fluorescence with the compound relative to the average vehicle control from 100%. A higher positive percent inhibition reflects greater inhibition of α-synuclein aggregation, while a negative percent inhibition reflects potentiation of α-synuclein aggregation.
Alternate concentrations of Thioflavin T may be used in the assay and may affect the fluorescent signal and sensitivity of the assay. Alternate concentrations of α-synuclein may be used and such alterations may affect aggregation kinetics of α-synuclein in the assay. Alternate concentrations of compounds may be tested in the assay, and dose-responses may be evaluated. Additional reagents may be added to the assay which may affect aggregation kinetics of α-synuclein depending on their concentration, including detergents such as sodium dodecyl sulfate, sodium chloride, dithiotreitol, or bovine serum albumin. Shaking may be included at alternate intervals in the assay and may affect α-synuclein aggregation kinetics. […]

[2] = biological target: T2, E. coli CsgA (Escherichia coli, UniProt P28307); test: In vitro ThioflavinT assay of CsgA aggregation (CsgA ThT Assay); assay type: biochemical; conditions: for remaining activity at 100 µM: compound 100 μM
T2 construct: made in house; host or cells: E. coli NEB 3016 slyD::kan, pET11d
T2 sequence (P28307 23-151): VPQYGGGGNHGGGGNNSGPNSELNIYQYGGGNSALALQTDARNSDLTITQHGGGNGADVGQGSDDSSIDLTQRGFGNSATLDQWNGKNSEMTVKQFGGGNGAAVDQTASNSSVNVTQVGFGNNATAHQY
Summary of the method: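 Purified C-terminal His-tagged CsgA, monomerised by desalting and 30-kDa filtration, at 2-20 μM with 20-40 μM ThT in 50 mM potassium phosphate pH 7.3, 1% DMSO, compounds 3.125-200 uM; room temperature, fluorescence (ex 438/em 495 nm) read every 15 min. Background-subtracted signal expressed as percent inhibition versus vehicle at 6-6.5 or 8-9 h, or as percent control AUC.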

[3] = tested on: CsgA gene expression (csgBAC promoter-GFP reporter) in E. coli UTI89; test: In vitro live cell fluorescent reporter assay of CsgA transcription (Reporter Assay); assay type: cell-based; conditions: Escherichia coli
Summary of the method: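 Chromosomal single-copy csgBAC promoter–GFP reporter in E. coli UTI89, started at OD600 0.003 in YESCA broth with compound (0.14–100 μM, 1% DMSO), 20 h at 27 °C. GFP (ex 485/em 525 nm) background-subtracted and normalized to vehicle; IC50 and X[50] from curve fits. OD600 tracked growth effects.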

[4] = mean % inhibition of αSyn aggregation relative to DMSO control, compounds at 100 μM, read-out: αSyn ThT Assay % Inhibition
[5] = compounds at 100 μM, class symbol, read-out: αSyn ThT Assay % Inhibition (activity range)
[6] = read-out: CsgA ThT Assay (10 μM CsgA) % Control AUC at 1005 minutes, 100 μM (activity range), CsgA 10 μM, black plates, 1005 minutes, class symbol
[7] = read-out: CsgA ThT Assay (10 μM CsgA) % Control AUC at 1005 minutes, 100 μM, mean AUC as % of DMSO control, CsgA 10 μM, black plates, 1005 minutes
[8] = compounds at 100 μM, class symbol
[9] = read-out: CsgA ThT Assay (2 μM CsgA) % Control Bmax 25 μM, activity range, class symbol, CsgA 2 μM, white plates, compound 25 μM
[10] = read-out: CsgA ThT Assay (2 μM CsgA) % Control Bmax 25 μM, mean Bmax as percentage of DMSO control, CsgA 2 μM, white plates, compound 25 μM
[11] = read-out: CsgA ThT Assay (2 μM CsgA) % Control Bmax 100 μM, activity range, class symbol, CsgA 2 μM, white plates
[12] = read-out: CsgA ThT Assay (2 μM CsgA) % Control Bmax 100 μM, mean Bmax as percentage of DMSO control, CsgA 2 μM, white plates
[13] = read-out: Reporter Assay Abs IC50 (μM), median Abs IC50 in the CsgA reporter assay, N/A = maximum expression reduction is <50% of control
[14] = read-out: Reporter Assay Abs IC50, activity range, class symbol

## O=C(O)C1CNS(=O)(=O)c2c(-c3cccc(C(F)(F)F)c3)c(Cc3cccc4ccccc34)cc(=O)n21 (racemic) [Compound 009, 8-(naphthalen-1-ylmethyl)-6-oxo-9-(3-(trifluoromethyl)phenyl)-3,4-dihydro-2H,6H-pyrido[1,2-e][1,2,5]thiadiazine-4-carboxylic acid 1,1-dioxide]
[1]; [4]
  inhibition at 100 µM: 28%
[1]; [5]
  inhibition at 100 µM: 11 to 30%

## O=C(O)C1CS(=O)(=O)c2c(-c3cccc(C(F)(F)F)c3)c(Cc3cccc4ccccc34)cc(=O)n21 (racemic) [Compound 010, 7-(naphthalen-1-ylmethyl)-5-oxo-8-(3-(trifluoromethyl)phenyl)-2,3-dihydro-5H-thiazolo[3,2-a]pyridine-3-carboxylic acid 1,1-dioxide]
[1]; [4]
  inhibition at 100 µM: 13%
[1]; [5]
  inhibition at 100 µM: 11 to 30%

## O=C(O)C1CS(=O)(=O)c2c(-c3cccc(C(F)(F)F)c3)c(Cc3cccc4ccccc34)cc(=S)n21 (racemic) [Compound 014, 7-(naphthalen-1-ylmethyl)-5-thioxo-8-(3-(trifluoromethyl)phenyl)-2,3-dihydro-5H-thiazolo[3,2-a]pyridine-3-carboxylic acid 1,1-dioxide]
[1]; [4]
  inhibition at 100 µM: 35%
[1]; [5]
  inhibition at 100 µM: 31 to 60%

## CN1CC(C(=O)O)n2c(c(-c3cccc(C(F)(F)F)c3)c(Cc3cccc4ccccc34)cc2=O)S1(=O)=O (single isomer, unassigned) [Compound 008a, 2-methyl-8-(naphthalen-1-ylmethyl)-6-oxo-9-(3-(trifluoromethyl)phenyl)-3,4-dihydro-2H,6H-pyrido[1,2-e][1,2,5]thiadiazine-4-carboxylic acid 1,1-dioxide]
[2]; read-out: CsgA ThT Assay (10 μM CsgA) % Control AUC at 1005 minutes, 25 μM (activity range), CsgA 10 μM, black plates, compound 25 μM, 1005 minutes, class symbol
  remaining activity at 25 µM: > 60%
[2]; read-out: CsgA ThT Assay (10 μM CsgA) % Control AUC at 1005 minutes, 25 μM, mean AUC as % of DMSO control, CsgA 10 μM, black plates, compound 25 μM, 1005 minutes
  remaining activity at 25 µM: 71%
[2]; [6]
  remaining activity at 100 µM: 31 to 60%
[2]; [7]
  remaining activity at 100 µM: 38%
[1]; [4]
  inhibition at 100 µM: 16%
[1]; [8]
  αSyn ThT Assay % Inhibition (activity range): (+) ((+) represents 11 to 30)

## CN1CC(C(=O)O)n2c(c(-c3cccc(C(F)(F)F)c3)c(Cc3cccc4ccccc34)cc2=O)S1(=O)=O (single isomer, unassigned) [Compound 008b, 2-methyl-8-(naphthalen-1-ylmethyl)-6-oxo-9-(3-(trifluoromethyl)phenyl)-3,4-dihydro-2H,6H-pyrido[1,2-e][1,2,5]thiadiazine-4-carboxylic acid 1,1-dioxide]
[1]; mean % inhibition of αSyn aggregation relative to DMSO control, compounds at 100 μM
  αSyn ThT Assay % Inhibition: 10%
[1]; [8]
  αSyn ThT Assay % Inhibition (activity range): (−) ((−) represents −10 to 10)

## O=C(O)C1CS(=O)(=O)c2c(-c3cccc(C(F)(F)F)c3)c(Cc3cccc4ccccc34)cc(=S)n21 (single isomer, unassigned) [Compound 014a, 7-(naphthalen-1-ylmethyl)-5-thioxo-8-(3-(trifluoromethyl)phenyl)-2,3-dihydro-5H-thiazolo[3,2-a]pyridine-3-carboxylic acid 1,1-dioxide]
[2]; CsgA 10 μM, black plates, compound 25 μM, 1005 minutes, class symbol
  CsgA ThT Assay (10 μM CsgA) % Control AUC at 1005 minutes, 25 μM (activity range): (++) (% control AUC of 31 to 60%)
[2]; mean AUC as % of DMSO control, CsgA 10 μM, black plates, compound 25 μM, 1005 minutes
  CsgA ThT Assay (10 μM CsgA) % Control AUC at 1005 minutes, 25 μM: 37%
[2]; [6]
  remaining activity at 100 µM: 11 to 31%
[2]; [7]
  remaining activity at 100 µM: 29%
[1]; [4]
  inhibition at 100 µM: 68%
[1]; [5]
  inhibition at 100 µM: > 60%

## O=C(O)C1CNS(=O)(=O)c2c(-c3cccc(C(F)(F)F)c3)c(Cc3cccc4ccccc34)c(NC3CCCC3)c(=O)n21 (stereo not drawn) [Compound 005, 7-(cyclopentylamino)-8-(naphthalen-1-ylmethyl)-6-oxo-9-(3-(trifluoromethyl)phenyl)-3,4-dihydro-2H,6H-pyrido[1,2-e][1,2,5]thiadiazine-4-carboxylic acid 1,1-dioxide]
[2]; [9]
  remaining activity at 25 µM: > 60%
[2]; [10]
  remaining activity at 25 µM: 66%
[2]; [11]
  remaining activity at 100 µM: 11 to 31%
[2]; [12]
  remaining activity at 100 µM: 20%
[1]; class symbol, compounds 100 μM, read-out: αSyn ThT Assay % inhibition, activity range
  inhibition at 100 µM: 31 to 60%
[1]; mean percent inhibition relative to DMSO control, compounds 100 μM, read-out: αSyn ThT Assay % inhibition
  inhibition at 100 µM: 48%

## CC(C)(C)c1cccc(Cc2c(-c3cccc(C(F)(F)F)c3)c3n(c(=O)c2Cl)C(C(=O)O)CN3Cc2ccccc2)c1 (stereo not drawn) [Compound 215, 1-benzyl-7-(3-(tert-butyl)benzyl)-6-chloro-5-oxo-8-(3-(trifluoromethyl)phenyl)-1,2,3,5-tetrahydroimidazo[1,2-a]pyridine-3-carboxylic acid]
[2]; [9]
  remaining activity at 25 µM: > 60%
[2]; [10]
  remaining activity at 25 µM: 97%
[2]; [11]
  remaining activity at 100 µM: > 60%
[2]; [12]
  remaining activity at 100 µM: 61%
[3]; [13]
  IC50: 1.3 µM
[3]; [14]
  IC50: 1.3 to 4.5 µM

## O=C(O)C1CN(Cc2ccccc2)c2c(-c3cccc(C(F)(F)F)c3)c(CN3CCCc4ccccc43)c(Cl)c(=O)n21 (stereo not drawn) [Compound 217, 1-benzyl-6-chloro-7-((3,4-dihydroquinolin-1 (2H)-yl)methyl)-5-oxo-8-(3-(trifluoromethyl)phenyl)-1,2,3,5-tetrahydroimidazo[1,2-a]pyridine-3-carboxylic acid]
[2]; [9]
  remaining activity at 25 µM: > 60%
[2]; [10]
  remaining activity at 25 µM: 65%
[3]; [13]
  IC50: 1.1 µM
[3]; [14]
  IC50: < 1.3 µM
